Measured values reported in PubChem BioAssay AID2060605 (Molecular Pharmacology Branch, DTP, NCI, 2025).

Tested on: 947758-054-R-J2-PDC spheroid growth, percent test/control
Assay: Anticancer human tumor 947758-054-R-J2-PDC patient-derived colon adenocarcinoma cell line growth inhibition [CLK]
Details: spheroids with HUVEC and MSC; for IC50: curve of first compound; for viability, T/C: stronger effect = lower value
Summary of the method: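 Patient-derived tumor cells grown as complex spheroids with HUVEC endothelial cells and mesenchymal stem cells, treated with drug combinations. Concentrations descend in half-log steps from near clinical Cmax, or from 10 microM if Cmax unknown.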

[1] = second compound 0.0316 µM, first compound 0.0316 µM
[2] = second compound 0.0316 µM, first compound 0.1 µM
[3] = second compound 0.1 µM, first compound 0.0316 µM
[4] = second compound 0.1 µM, first compound 0.1 µM
[5] = second compound 0.316 µM, first compound 0.0316 µM
[6] = second compound 0.316 µM, first compound 0.1 µM
[7] = second compound 1 µM, first compound 0.0316 µM
[8] = second compound 1 µM, first compound 0.1 µM
[9] = second compound 3.16 µM, first compound 0.0316 µM
[10] = second compound 3.16 µM, first compound 0.1 µM
[11] = second compound 10 µM, first compound 0.0316 µM
[12] = second compound 10 µM, first compound 0.1 µM
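Also: spheroids exposed to compounds for one week before readout.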
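For viability, T/C in this document: 100% = DMSO vehicle control wells.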

Cn1ncnc1[C@H]1c2n[nH]c(=O)c3cc(F)cc(c23)N[C@@H]1c1ccc(F)cc1 + CN1CCN(c2cc(C(=O)Nc3cc4cc(-c5cnn(C)c5)ccc4cn3)ccn2)CC1
IC50 (second compound 0.0316 µM): > 100 nM
IC50 (second compound 0.1 µM): > 100 nM
IC50 (second compound 0.316 µM): < 0.316 nM
IC50 (second compound 1 µM): < 0.316 nM
IC50 (second compound 3.16 µM): < 0.316 nM
IC50 (second compound 10 µM): < 0.316 nM
viability, T/C (second compound 0.0316 µM, first compound 0.000316 µM): 141%
viability, T/C (second compound 0.0316 µM, first compound 0.001 µM): 155%
viability, T/C (second compound 0.0316 µM, first compound 0.00316 µM): 157%
viability, T/C (second compound 0.0316 µM, first compound 0.01 µM): 107%
viability, T/C [1]: 133%
viability, T/C [2]: 197%
viability, T/C (second compound 0.1 µM, first compound 0.000316 µM): 161%
viability, T/C (second compound 0.1 µM, first compound 0.001 µM): 171%
viability, T/C (second compound 0.1 µM, first compound 0.00316 µM): 149%
viability, T/C (second compound 0.1 µM, first compound 0.01 µM): 134%
viability, T/C [3]: 181%
viability, T/C [4]: 145%
viability, T/C (second compound 0.316 µM, first compound 0.000316 µM): 4.7%
viability, T/C (second compound 0.316 µM, first compound 0.001 µM): 6.84%
viability, T/C (second compound 0.316 µM, first compound 0.00316 µM): 5.57%
viability, T/C (second compound 0.316 µM, first compound 0.01 µM): 4.75%
viability, T/C [5]: 5.66%
viability, T/C [6]: 4.51%
viability, T/C (second compound 1 µM, first compound 0.000316 µM): 0.15%
viability, T/C (second compound 1 µM, first compound 0.001 µM): 0.15%
viability, T/C (second compound 1 µM, first compound 0.00316 µM): 1.79%
viability, T/C (second compound 1 µM, first compound 0.01 µM): 0.11%
viability, T/C [7]: 0.18%
viability, T/C [8]: 1.95%
viability, T/C (second compound 3.16 µM, first compound 0.000316 µM): 0.37%
viability, T/C (second compound 3.16 µM, first compound 0.001 µM): 0.17%
viability, T/C (second compound 3.16 µM, first compound 0.00316 µM): 0.17%
viability, T/C (second compound 3.16 µM, first compound 0.01 µM): 0.13%
viability, T/C [9]: 0.37%
viability, T/C [10]: 1.28%
viability, T/C (second compound 10 µM, first compound 0.000316 µM): 0.25%
viability, T/C (second compound 10 µM, first compound 0.001 µM): 2.6%
viability, T/C (second compound 10 µM, first compound 0.00316 µM): 0.52%
viability, T/C (second compound 10 µM, first compound 0.01 µM): 0.26%
viability, T/C [11]: 0.26%
viability, T/C [12]: 2.18%

Nc1ccn(C2OC(CO)C(O)C2(F)F)c(=O)n1 (centres undefined) + CN1CCN(c2cc(C(=O)Nc3cc4cc(-c5cnn(C)c5)ccc4cn3)ccn2)CC1
IC50 (second compound 0.0316 µM): 33.1 nM
IC50 (second compound 0.1 µM): < 31.6 nM
IC50 (second compound 0.316 µM): < 31.6 nM
IC50 (second compound 1 µM): < 31.6 nM
IC50 (second compound 3.16 µM): < 31.6 nM
IC50 (second compound 10 µM): < 31.6 nM
viability, T/C [1]: 51.6%
viability, T/C [2]: 9.51%
viability, T/C (second compound 0.0316 µM, first compound 0.316 µM): 11.7%
viability, T/C (second compound 0.0316 µM, first compound 1 µM): 13.8%
viability, T/C (second compound 0.0316 µM, first compound 3.16 µM): 10.8%
viability, T/C (second compound 0.0316 µM, first compound 10 µM): 6.34%
viability, T/C [3]: 20.8%
viability, T/C [4]: 6.62%
viability, T/C (second compound 0.1 µM, first compound 0.316 µM): 10.4%
viability, T/C (second compound 0.1 µM, first compound 1 µM): 10.6%
viability, T/C (second compound 0.1 µM, first compound 3.16 µM): 7.69%
viability, T/C (second compound 0.1 µM, first compound 10 µM): 7.26%
viability, T/C [5]: 2.49%
viability, T/C [6]: 1.07%
viability, T/C (second compound 0.316 µM, first compound 0.316 µM): 1.17%
viability, T/C (second compound 0.316 µM, first compound 1 µM): 0.85%
viability, T/C (second compound 0.316 µM, first compound 3.16 µM): 0.53%
viability, T/C (second compound 0.316 µM, first compound 10 µM): 3.53%
viability, T/C [7]: 0.13%
viability, T/C [8]: 0.13%
viability, T/C (second compound 1 µM, first compound 0.316 µM): 2.17%
viability, T/C (second compound 1 µM, first compound 1 µM): 0.08%
viability, T/C (second compound 1 µM, first compound 3.16 µM): 0.45%
viability, T/C (second compound 1 µM, first compound 10 µM): 0.11%
viability, T/C [9]: 1.66%
viability, T/C [10]: 0.22%
viability, T/C (second compound 3.16 µM, first compound 0.316 µM): 0.38%
viability, T/C (second compound 3.16 µM, first compound 1 µM): 0.21%
viability, T/C (second compound 3.16 µM, first compound 3.16 µM): 0.27%
viability, T/C (second compound 3.16 µM, first compound 10 µM): 0.3%
viability, T/C [11]: 0.27%
viability, T/C [12]: 0.28%
viability, T/C (second compound 10 µM, first compound 0.316 µM): 0.31%
viability, T/C (second compound 10 µM, first compound 1 µM): 0.32%
viability, T/C (second compound 10 µM, first compound 3.16 µM): 1.07%
viability, T/C (second compound 10 µM, first compound 10 µM): 0.35%
